Data on two compounds can be found in patent EP1030842B1, “METALLOPROTEINASE INHIBITORS” (BRITISH BIOTECH PHARMACEUTICALS LIMITED, priority 1997, dated 1999).

Molecules are shown by their SMILES. Where two headings read alike, the source gives them in different places.

As usually defined, the IC50 is the concentration at which inhibition is half-maximal. A higher IC50 goes with lower potency.

The target of one data set is T1, 72 kDa gelatinase (Homo sapiens, UniProt P08253).
T1 construct: endogenous in cells; host or cells: RPMI-7951 cells
T1 sequence (P08253 110-660): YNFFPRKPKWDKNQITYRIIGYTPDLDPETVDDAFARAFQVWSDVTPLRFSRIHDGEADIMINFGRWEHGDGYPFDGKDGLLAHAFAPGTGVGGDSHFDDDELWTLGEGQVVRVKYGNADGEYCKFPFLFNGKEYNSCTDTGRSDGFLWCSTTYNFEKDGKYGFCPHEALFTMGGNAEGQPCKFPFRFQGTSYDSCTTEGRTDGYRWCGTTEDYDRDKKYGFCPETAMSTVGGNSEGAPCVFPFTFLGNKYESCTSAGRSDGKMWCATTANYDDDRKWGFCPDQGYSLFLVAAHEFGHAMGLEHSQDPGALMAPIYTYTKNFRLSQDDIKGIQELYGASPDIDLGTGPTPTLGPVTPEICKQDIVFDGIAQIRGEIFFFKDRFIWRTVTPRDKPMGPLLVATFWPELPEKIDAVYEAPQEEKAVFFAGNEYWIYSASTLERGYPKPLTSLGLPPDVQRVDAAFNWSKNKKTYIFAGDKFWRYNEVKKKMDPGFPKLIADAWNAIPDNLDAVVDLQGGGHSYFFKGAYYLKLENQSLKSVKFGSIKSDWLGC
In words: 72 kDa gelatinase inhibition (14C gelatin, based on Sellers et al). The class given is biochemical. The conditions noted are these: 16 hours at 37°C. The protocol:
72 kDa gelatinase, derived from RPMI-7951 cells was purified by gelatin-agarose chromatography. The enzyme was activated by incubation with aminophenyl mercuric acetate and approximately 0.05 units was incubated with 50µg [^14C]-radiolabelled gelatin in an appropriate buffer for 16 hours at 37'C. At the end of the incubation 50µg bovine serum albumin, together with trichloroacetic acid (final concentration 16%) were added to stop the reaction and to precipitate any undegraded substrate. The reaction tubes were placed on ice for 15 minutes before centrifugation at 10,000g for 15 minutes to sediment the precipitated substrate. A 200µl aliquot of the reaction supernatant was removed and the radioactivity determined by liquid scintillation counting. The effect of the inhibitors was determined by reference to a dose response curve. The IC50 (the concentration of inhibitor required to cause a 50% decrease in enzyme activity) was obtained by fitting a curve to the data and computing the concentration of inhibitor required to achieve 50% inhibition of the enzyme. For each IC50 determination, the effect on gelatinase activity of at least 8 concentrations of the inhibitor were examined. The inhibitors were dissolved and diluted in DMSO.

Data set [1] can be described thus: Blood concentration over time after gavage, by collagenase inhibitory activity of blood extracts. The class given is in vivo. The settings on record: male rats. As for the experimental part:
The concentration over time of compound of the invention in the blood of laboratory animals following administration of the test compounds was measured. The compound was administered by gavage to 6 male rats (300g) per treatment group. Blood samples were removed by tail venepuncture at 0.5, 1.0, 2.0, 6.0 and 24 hours post administration. 0.4 ml of blood was placed into 4.5ml tubes containing 0.1ml acid citrate dextrose (ACD) as anti-coagulant. For extraction, 3ml methanol was added and the precipitated blood pelletted by centrifugation (30 min at 3000 rpm). A 2ml aliquot of supernatant was removed and concentrated by lyophilisation. The extract was redissolved in 200µl DMSO and a 10µl aliquot assayed for collagenase inhibitory activity. The inhibitory activity in the extracts was determined using the collagenase assay described in Biological Example A above, and the concentration of inhibitor (that is drug plus any active metabolites) obtained by comparison with standard curves. Results are expressed as peak concentration in ng/ml, as area under the curve (AUC) in ng/ml x hours, over 0.5-24 hours, and as AUC in number of IC50's x hours.

Data set [2] can be described thus: Inhibitory activity in blood after oral administration to marmosets. The class given is in vivo.
The nature of data set [3]: Inhibitory activity in blood after oral administration to healthy human volunteers. The class given is in vivo.
For a further data set, the system named is B16 mouse melanoma cells. In words: B16 mouse melanoma model. The class given is in vivo, C57/BL6J mice. An excerpt: In this model C57/BL6J mice are inoculated subcutaneously with 10^5 B16 mouse melanoma cells. The tumours are allowed to grow over 18 days and the tumour weight calculated by calliper measurements and the following formula: weight (mg)- length (mm) x width (mm) ö 4. A group of mice (n=19) received the compound, administered via a mini-osmotic pump implanted subcutaneously on the opposite flank to the B16 tumour. The pump was implanted the day before tumour inoculation and the compound was delivered at a dose of 360 µg/day. A control group (n=17) received the appropriate volume of vehicle from identical implanted pumps.

Another data set concerns MDA-435 cells. The conditions noted are these: study ended day 32. The protocol:
In this model, animals were inoculated with MDA-435 cells (10^6 cells/mouse), the tumours allowed to grow for four days and then the animals were randomised by tumour weight into three treatment groups (n=15 per group). Mini-pumps were surgically implanted on day 5 containing either vehicle or test compound at 15 mg/ml or 60 mg/ml (delivering 180 or 720 µg/mouse/day respectively). The pumps were replaced on day 19 and the study ended on day 32.

The nature of data set [4]: Propensity to induce observable signs of tendinitis in rats (observation based score). It is filed as in vivo, Male Lewis rats. The conditions noted are these: 5µl/hr; for signs of tendinitis: observed daily for 16 days, mean scores >2 significant. As for the experimental part: The compound of the invention was tested for its propensity to induce observable signs of tendinitis in rats. The tendinitic effect in rats of the compound of the invention ("Compound A") was compared with that of a close structural isomer, namely N^1-[2,2-dimethyl-1S-(pyridin-3-ylcarbamoyl)-propyl]-N^4-hydroxy-2R-isobutyl-3S-hydroxy-succinamide ("Compound B").
Male Lewis rats were used. In each study up to 30 rats were weighed and randomised on bodyweight for group allocation, n=6/group. In each study, a corresponding vehicle group was run to compare with each treatment group.
Compound A was formulated as its mesylate salt, whilst Compound B was formulated as the free base. For Compound A @ 15mg/ml the vehicle was 50% DMSO, 37% 0.1M methane sulphonic acid, 13% sterile water; and @ 30mg/ml the vehicle was 50% DMSO, 37% 0.2M methane sulphonic acid, 13% sterile water. For Compound B @ 15mg/ml the vehicle was 50% DMSO/water.
Alzet (trade mark) osmotic minipumps (2ML2, 14 day, 5µl/hr from Alza Corp., Palo Alto CA 94303), were weighed empty and full to be sure of correct fill volume. Prior to implantation, filled pumps were placed in an incubator at 37°C. All rats were anaesthetized with halothane. Once anaesthetised, the scruff was shaved and disinfected. A longitudinal skin incision, approx 2 cm long, was made on the prepared site and a subcutaneous pocket was made under the skin using a pair of haemostatic forceps. Minipumps were inserted with the exit of the pump facing away from the wound. The incision wound was closed with sutures, and the area around the wound was re-disinfected. Immediately post-operatively, all the rats received analgesic, (Temgesic -trade mark - Reckitt and Colman) 0.1mg/kg s.c. in the flank. On recovery from anaesthesia, the animals were returned to cages containing dry bedding to ensure the wound remained dust free prior to healing. On the day followng surgery, all rats were placed back on standard bedding and housed in groups of 3 to enable more accurate observation of signs of tendinitis.
Following the implantation of mini-pumps, rats were weighed and monitored for the possible onset of tendinitis. Onset and severity of tendinitis was measured by an observation based scoring system (see below). The rats were observed daily for 16 days. Mean scores >2 were considered significant.

Data set [5] is described as follows: Rat experimental autoimmune neuritis (EAN) model of GBS. The class given is in vivo. As for the experimental part: The effect of the compound of the invention was tested in an animal model of GBS Experimental autoimmune neuritis (EAN) is a T cell mediated, autoimmune disorder of the peripheral nervous system. […] EAN can be induced when animals are injected with myelin from peripheral nerves, or with protein components of the myelin such as Protein 0, in adjuvant. EAN lesions occur in the spinal roots and peripheral nerves and are characterised by perivascular mononuclear cell infiltration, demyelination of axons and nerve conduction deficit.
The compound of the invention was tested in a rat EAN model where disease symptoms were induced by injection of peripheral nerve myelin in adjuvant. […]

Data set [6] in a line: Delayed type hypersensitivity (DTH) model of MS. It is filed as in vivo, Male Lewis rats. The settings on record: 30mg/kg orally twice daily, mean ± standard error of the mean.
A short description of data set [7]: Blood concentration in minipump-dosed rats of the tendinitis study (fluorometric assay). The class given is in vivo. The conditions noted are these: rats of the tendinitis tests; blood samples days 3, 10 and 16 or 17 post implantation. As for the experimental part: Blood samples were obtained on days 3 and 10 post minipump implantation from rats lightly anaesthetised with halothane via the tail vein. Blood samples (0.5ml) were placed into tubes containing 3.0ml methanol to extract free and bound compound. Blood concentration of Compound A or Compound B was determined by a fluorometric assay using the coumarin peptide substrate Mca-Pro-Leu-Gly-Leu-Dpa-Ala-Arg-NH2 (Mca = (7-methoxycoumarin-4-yl)acetyl, Dpa = N-3-(2,4-dinitrophenyl)-L-2,3-diaminopropyl) (see Knight et. al., FEBS Lett. 1992, 296, 263-266). On either day 16 or 17 post implantation, studies were ended, rats were terminally anaesthetised with halothane and blood samples (0.5ml) were taken by cardiac puncture and the blood concentration of Compound A or Compound B determined.

Another data set addresses interstitial collagenase (Homo sapiens, UniProt P03956). The data set is described as follows: biochemical.
A further data set deals with stromelysin-1 (Homo sapiens, UniProt P08254). The data set is described as follows: biochemical.
[8] abbreviates: 15mg/ml in osmotic minipump, Compound A as mesylate salt, Compound B as free base.

Chain of stromelysin-1 (P08254 100-477, species assumed): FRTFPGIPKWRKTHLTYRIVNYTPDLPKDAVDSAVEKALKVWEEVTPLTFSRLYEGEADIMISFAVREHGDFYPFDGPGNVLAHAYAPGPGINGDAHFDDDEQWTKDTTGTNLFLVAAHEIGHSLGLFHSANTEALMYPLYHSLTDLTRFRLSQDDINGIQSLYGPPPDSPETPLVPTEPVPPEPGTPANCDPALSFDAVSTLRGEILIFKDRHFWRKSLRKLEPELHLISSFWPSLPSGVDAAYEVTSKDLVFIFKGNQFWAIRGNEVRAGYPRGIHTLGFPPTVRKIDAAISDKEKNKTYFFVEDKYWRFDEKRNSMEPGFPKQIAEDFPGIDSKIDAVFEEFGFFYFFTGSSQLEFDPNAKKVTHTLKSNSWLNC
Chain of interstitial collagenase (P03956 100-469, species assumed): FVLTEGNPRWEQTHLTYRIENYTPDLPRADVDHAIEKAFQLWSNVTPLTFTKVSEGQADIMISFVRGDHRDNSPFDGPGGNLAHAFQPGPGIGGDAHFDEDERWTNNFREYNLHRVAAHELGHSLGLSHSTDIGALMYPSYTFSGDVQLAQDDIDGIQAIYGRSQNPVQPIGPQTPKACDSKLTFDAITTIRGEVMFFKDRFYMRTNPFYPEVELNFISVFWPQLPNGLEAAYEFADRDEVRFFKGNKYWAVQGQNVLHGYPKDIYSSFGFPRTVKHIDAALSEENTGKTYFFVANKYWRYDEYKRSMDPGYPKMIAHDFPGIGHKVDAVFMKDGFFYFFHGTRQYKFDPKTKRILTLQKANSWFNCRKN
Description for interstitial collagenase: The potency of the compound of the invention as inhibitors of interstitial collagenase was determined by the procedure of Cawston and Barrett, (Anal. Biochem., 99, 340-345, 1979), whereby a 1mM solution of the compound being tested, or a dilution thereof, was incubated at 37° for 16 hours with collagen and collagenase (buffered with 25mM Hepes, pH 7.5 containing 5mM CaCl2, 0.05% Brij 35 and 0.02% NaN3). The collagen was acetylated ^14C collagen prepared by the method of Cawston and Murphy, (Methods in Enzymology, 80, 711, 1981), hereby incorporated by reference. The samples were centrifuged to sediment undigested collagen, and an aliquot of the radioactive supernatant removed for assay on a scintillation counter as a measure of hydrolysis.
Description for stromelysin-1: The potency of the compound of the invention as inhibitors of stromelysin-1 was determined by the procedure of Cawston et al, (Biochem. J., 195, 159-165, 1981), whereby a 1mM solution of the compound being tested, or a dilution thereof, was incubated at 37° for 16 hours with stromelysin and ^14C acetylate casein (buffered with 25mM Hepes, pH 7.5 containing 5mM CaCl2, 0.05% Brij 35 and 0.02% NaN3). The casein was acetylated ^14C casein prepared by the method of Cawston et al (ibid).

In the case of `CO[C@H](C(=O)NO)[C@@H](CC(C)C)C(=O)N[C@H](C(=O)Nc1ccccn1)C(C)(C)C` [compound of the invention, N^1-[2,2-Dimethyl-1S-(pyridin-2-ylcarbamoyl)-propyl]-N^4-hydroxy-2R-isobutyl-3S-methoxy-succinamide], the results for the IC50 at 72 kDa gelatinase, against interstitial collagenase and against stromelysin-1 were 70 nM, 10 nM and 30 nM, respectively. Also, the “AUC (0.5 - 24h)” value in data set [1] (AUC in number of IC50's x hours) stood at 674 n IC50's x h; in data set [1] (drug plus any active metabolites in blood), 2966 ng/ml x h. Moreover, the “inhibitory activity in the blood” value in data set [2] and in [3] was “significant levels of inhibitory activity have been detected” in each case. Besides, the “weight of the compound-treated tumours” value with B16 mouse melanoma cells (day 18, 360 µg/day via subcutaneous mini-osmotic pump, control 1145 ± 97 mg) is given as 774 ± 50 mg. In the data set with B16 mouse melanoma cells (day 18, 360 µg/day, versus vehicle control, p<0.005), the “reduction of tumour weight” value is recorded as 32%. In the data set with B16 mouse melanoma cells (end of the study, 360 µg/day via mini-osmotic pump), the plasma level was 26.8 ± 3.2 ng/mL. Besides, the “inhibition of tumour growth” value is recorded as 19% in the data set on MDA-435 cells (180 µg/mouse/day (15 mg/ml mini-pump)) and 33% in the data set with MDA-435 cells (720 µg/mouse per day (60 mg/ml mini-pump), p<0.005). The signs of tendinitis entry in data set [4] (setting [8]) is reported as “no significant signs of tendinitis”; in data set [4] (30mg/ml in osmotic minipump, mesylate salt), “no significant signs of tendinitis”. Besides, in data set [5] (given therapeutically day 8-15, 15 or 30 mg/ml at 10 µl/hour, 14 and 28 mg/kg/day), the clinical symptoms result is recorded as “reduces clinical symptoms in a dose dependent manner”. Further, the “development of clinical symptoms” value in data set [5] (treatment day 1-15, minipumps 15 or 30 mg/ml at 5 µl/hour, 7 and 14 mg/kg/day) is recorded as “significantly reduces the development of clinical symptoms in a dose-dependent manner”. In addition, the “Blood brain barrier leakage” value in data set [6] (day 5 to day 15 after second BCG injection, p<0.05 vs vehicle) is 2.042±0.487 mm^2. This compound yielded a T cell infiltration in [6] (OX-22 positive cells, p<0.0001 vs vehicle) of 341.2±21.9 cells/mm^2. The compound further displayed a Demyelination in data set [6] (not statistically significant) of 0.758±0.227 mm^2. Further, the “MHC class II expression” value in data set [6] (not statistically significant) was determined as 1.318±0.300 mm^2. For the same compound, the “plasma exposure from the minipumps” value in [7] is “receiving plasma exposure”.
For the compound `CC(C)C[C@@H](C(=O)N[C@H](C(=O)Nc1cccnc1)C(C)(C)C)[C@H](O)C(=O)NO` [Compound B, N^1-[2,2-dimethyl-1S-(pyridin-3-ylcarbamoyl)-propyl]-N^4-hydroxy-2R-isobutyl-3S-hydroxy-succinamide], the signs of tendinitis entry in data set [4] (setting [8]) was “significant signs from day 8 onwards”. In addition, the “mean scores (tendinitis)” value in data set [4] (day 8, 15mg/ml in osmotic minipump) is above 2; in [4] (days 15 and 16, 15mg/ml in osmotic minipump) it was “about 6”. Moreover, the “plasma exposure from the minipumps” value in [7] is listed as “receiving plasma exposure”.
